Assay: primary cutaneous irritation test
Assay type: in vivo, lapin
Details: rabbit; compared with other allethrin isomers, natural pyrethrin, or hydrocarbon-containing compositions
Excerpt: Le pouvoir irritant des compositions selon l'invention a été étudié chez le lapin, par un test d'irritation cutanée primaire, dont les conditions de réalisation sont définies dans le Journal Officiel de la République Française du 21 avril 1971, complété par celui du 5 juin 1973. Il a été comparé à celui des compositions où des pyréthrines naturelles remplaçaient les pyréthrinoldes de l'invention et à celui de compositions résultant du mélange des pyréthrinoides et d'huile de vaseline ou d'isododécane.

C=CCC1=C(C)[C@@H](OC(=O)[C@@H]2[C@@H](C=C(C)C)C2(C)C)CC1=O [pyréthrinoide de l'exemple 1, d-transchrysanthémate de d-alléthrolone]
pouvoir irritant (comparison in words): beaucoup moins irritant

Reference: patent EP0150638A1, “Pyrethroid composition for the local treatment of skin diseases” (CENTRE DE RECHERCHE D'APPLICATIONS PHARMACEUTIQUES …, priority 1983, dated 1985)
